From patent US12622878B2, “Cationic lipid having cystine skeleton” (NOF CORPORATION, priority 2020, dated 2026)

Key:
[1] = Measurement of Liposomal pKa (TNS fluorescence) of LNP without nucleic acid; format: physicochemical; settings: cationic lipid:DOPC:Chol=52.5:7.5:40 + about 1.5 mol DMG-PEG2k, pH at which relative TNS fluorescence intensity was 50%
Protocol: Lipid nano particles (LNP) without containing nucleic acid were used for the evaluation of Liposomal pKa.
(§1) A 10 mM ethanol solution of cationic lipid, a 5 mM ethanol solution of DOPC, and a 10 mM ethanol solution of Chol were mixed at desired ratio (cationic lipid:DOPC:Chol=52.5:7.5:40 (molar ratio)) in an Eppendorf tube to achieve the total lipid amount of 720 nmol. To the obtained mixture was further added DMG-PEG2k (2 mM ethanol solution) in an amount of about 1.5 mol with respect to the total amount 100 mol of cationic lipid, DOPC, and Chol, and then ethanol was added to prepare an ethanol solution of the lipid (total amount: 360 μL).
(§2) An acidic malic acid buffer (20 mM, pH 3.0) (1080 μL) containing NaCl at a final concentration of 30 mM and an ethanol solution (360 μL) of lipid were each weighed in a syringe. Using an ultra high-speed nanomedicament producing apparatus NanoAssmblr (manufactured by Precision NanoSystems), LNP was prepared under the conditions of addition rate of acidic buffer solution: 3 mL/min, addition rate of ethanol solution of lipid: 1 mL/min, and syringe holder temperature: 25° C., and collected in a 15 mL tube. MES buffer (pH 6.5) (3000 μL) was added to the 15 mL tube, the obtained mixture was transferred to Amicon Ultra 4, and ultrafiltration was performed under centrifugation conditions (25° C., 1000 g, 6 min) to concentrate the mixture to about 100 μL. The obtained concentrate was diluted with PBS to 4 mL, and the mixture was concentrated again under centrifugation conditions (25° C., 1000 g, 6 min), and this operation was performed twice. The obtained concentrate was diluted with PBS to a lipid concentration of 0.5 mM to give a dispersion containing LNP.
20 mM Citrate buffer, sodium phosphate buffer, and tris HCl buffer, each containing NaCl at a final concentration of 150 mM and adjusted to various pHs within the range of pH 3.0 to 10.0, were prepared. TNS (manufactured by Sigma) was diluted with ultrapure water to 0.6 mM. TNS solution (2 μL), dispersions (12 μL) containing LNP prepared in [Experimental Example 1], 1, and buffers adjusted to various pHs (186 μL) were added to a black 96 well plate. The plate was protected from light and shaken at 400 rpm for 10 min. The fluorescence intensity (excitation: 321 nm/emission: 447 nm) was measured using a plate reader (manufactured by TECAN). The relative fluorescence intensity was calculated as a percentage, with the maximum value of the fluorescence intensity in each LNP being 100% and the minimum value being 0%. Furthermore, the pH at which the relative fluorescence intensity was 50% was taken as Liposomal pKa.

[2] = Particle size, PdI and zeta potential of mRNA-encapsulating LNPs by dynamic light scattering; format: physicochemical; settings: FLuc mRNA-encapsulating LNP, cationic lipid:DOPC:Chol=55:5:40 + about 1 mol DMG-PEG2k; for PdI / particle size: dynamic light scattering; for zeta potential: physiological pH
Protocol: as §1, with “lipid:DOPC:Chol=55:5:40” for “lipid:DOPC:Chol=52.5:7.5:40”, “1” for “1.5”
An acidic buffer solution (total amount: 1080 μL) of nucleic acid was prepared by weighing 7.2 μg of mRNA solution (0.6 mg/mL) (CleanCap (registered trade mark) FLuc mRNA (TriLink)) in a 5 mL tube and adding acidic malate buffer (20 mM, pH 3.0) containing NaCl at a final concentration of 30 mM.
as §2, with “buffer solution of nucleic” for “malic”, “acid” for “acid buffer (20 mM, pH 3.0) (1080 μL) containing NaCl at a final concentration of 30 mM”, “solution” for “solution (360 μL)”, “solution of nucleic acid:” for “solution:”, “2” for “0.5”
The particle size, PdI (Polydispersity Index, Polydispersity), and zeta potential of the mRNA-encapsulating LNP prepared by the method of the above-mentioned 1 were measured by a dynamic light scattering method.

Jurkat cells = assay: In vitro gene expression (luciferase mRNA) in Jurkat cells; format: cell-based, human; settings: FLuc mRNA-encapsulating LNP, 0.4 μg mRNA, FIG. 1
Protocol: (§3) LNP encapsulating mRNA (CleanCap (registered trade mark) FLuc mRNA (TriLink)) that expresses luciferase (cationic lipid:DOPC:Chol:DMG-PEG2k=55:5:40:1 (molar ratio)) was prepared by the method described in [Experimental Example 2], 1.
Jurkat cells, which are human leukemia T cells, were seeded in a 3.5 cm dish at 2.0×10^5 cells/1.8 mL/Dish 24 hours before transfection. After 24 hr, a medium (RPMI1640) (200 μL) supplemented with D-luciferin was added to the dish at final concentration of 0.1 mM. Each mRNA-encapsulating LNP dispersion (40 to 120 μL) (0.4 μg as mRNA) was added to the aforementioned dish, and the aforementioned dish was set in an incubator luminometer KronosDio. The luminescence intensity of luciferase was measured for 2 min every three hours. The cumulative luciferase luminescence intensity for 24 hr was calculated from the obtained time change of expression. For example, “5.0E+05” means “5.0×10^5”.

BALB/c mouse = assay: In vivo gene expression (luciferase mRNA), organ luminescence by IVIS; settings: tail vein, 0.05 mg mRNA per kg, 4.5 hr after administration, liver and spleen, FIG. 2
Protocol: as §3
The prepared each mRNA-encapsulating LNP dispersion was administered from the tail vein of BALB/c mouse (male, 5-week-old). The dose of mRNA was set to 0.05 mg per 1 kg body weight of the mouse, and the dose of the mRNA-encapsulating LNP dispersion was set to 10 μL per 1 g body weight of the mouse. After 4.5 hr from the administration of the mRNA-encapsulating LNP dispersion, a PBS solution of D-luciferin potassium was administered into the abdominal cavity of the mouse. The dose of D-luciferin potassium was set to 3 mg per mouse, and the dose of the PBS solution of D-luciferin potassium was set to 200 μL per mouse. After 15 min from the administration of the PBS solution of D-luciferin potassium, the mouse was euthanized, and the liver, spleen, kidney, heart, and lung were isolated. The luminescence in each organ was quantified using an in vivo imaging system (IVIS) with an exposure of 10 sec. The amount of luminescence in each organ was quantified by image analysis using Live Imaging software attached to IVIS. The amount of luminescence (photons/sec) was calculated from the acquired image and used as an index of gene expression activity. […]

HeLa cells = assay: In vitro gene expression (luciferase mRNA) in HeLa cells; format: cell-based, human; settings: FLuc mRNA-encapsulating LNP, 0.4 μg mRNA, FIG. 3
Protocol: as §3
HeLa cells, which are human cervical cancer cells, were seeded in a 3.5 cm dish at 5.0×10^4 cells/2 mL/Dish 24 hours before transfection. After 24 hours, the medium was exchanged with a culture medium (D-MEM) containing 0.1 mM D-luciferin. Prepared mRNA-encapsulating LNP was diluted with PBS such that the concentration of mRNA was 8 μg/mL. The diluted mRNA-encapsulating LNP solution (50 μL, mRNA: 0.4 μg) was added to the 3.5 cm dish and set in an incubator luminometer KronosDio. The luminescence intensity of luciferase was measured for 2 min every one hour. The cumulative luciferase luminescence intensity for 24 hr was calculated from the obtained time change of expression. For example, “1.0E+06” means “1.0×10^6”.

What does the source list for CCCCCCCC/C=C\CCCCCCCC(=O)Oc1ccc(CC(=O)OCCOC(=O)C(CSSCC(NC(=O)CN(C)CCC)C(=O)OCCOC(=O)Cc2ccc(OC(=O)CCCCCCC/C=C\CCCCCCCC)cc2)NC(=O)CN(C)CCC)cc1 (stereo not drawn) [Example 3]?
pKa [1]: 5.9; PdI [2]: 0.100; particle size [2]: 111 nm; zeta potential [2]: −11.2 mV

For CCCCCCCC/C=C\CCCCCCCC(=O)Oc1ccc(CC(=O)OCCOC(=O)C(CSSCC(NC(=O)CN(CCC)CCC)C(=O)OCCOC(=O)Cc2ccc(OC(=O)CCCCCCC/C=C\CCCCCCCC)cc2)NC(=O)CN(CCC)CCC)cc1 (stereo not drawn) [Example 5], which pKa [1] is on record?
Its pKa is 5.3.

And the PdI [2]?
The PdI was 0.162.

And the particle size [2]?
The particle size was 112 nm.

What about the zeta potential [2] of the same compound?
The zeta potential was −12.4 mV.

For CCCCCCCC/C=C\CCCCCCCC(=O)Oc1ccc(CC(=O)OCCOC(=O)C(CSSCC(NC(=O)CN(C)C)C(=O)OCCOC(=O)Cc2ccc(OC(=O)CCCCCCC/C=C\CCCCCCCC)cc2)NC(=O)CN(C)C)cc1 (stereo not drawn) [Example 1], which pKa [1] is on record?
The pKa was 6.6.

What about the PdI [2] of the same compound?
Its PdI is 0.105.

And the particle size [2]?
The particle size was 78 nm.

What about the zeta potential [2] of the same compound?
Its zeta potential is 0.01 mV.

What about the “gene expression activity (cumulative luciferase luminescence intensity for 24 hr)” value (Jurkat cells) of the same compound?
The value was “superior gene expression activity”.

What about the “gene expression activity (amount of luminescence in organ)” value (BALB/c mouse) of the same compound?
Its value is “superior gene expression activity in the liver and the spleen”.

What about the “gene expression activity (cumulative luciferase luminescence intensity for 24 hr)” value (HeLa cells) of the same compound?
The value was “superior gene expression activity”.

For CCCCCCCC/C=C\CCCCCCCC(=O)Oc1ccc(CC(=O)OCCOC(=O)C(CSSCC(NC(=O)CN(C)CC)C(=O)OCCOC(=O)Cc2ccc(OC(=O)CCCCCCC/C=C\CCCCCCCC)cc2)NC(=O)CN(C)CC)cc1 (stereo not drawn) [Example 2], which pKa [1] is on record?
Its pKa is 6.4.

What about the PdI [2] of the same compound?
Its PdI is 0.073.

What about the particle size [2] of the same compound?
Its particle size is 82 nm.

What about the zeta potential [2] of the same compound?
Its zeta potential is −5.02 mV.

For CCCCCCCC/C=C\CCCCCCCC(=O)Oc1ccc(CC(=O)OCCOC(=O)C(CSSCC(NC(=O)CN2CCCCC2)C(=O)OCCOC(=O)Cc2ccc(OC(=O)CCCCCCC/C=C\CCCCCCCC)cc2)NC(=O)CN2CCCCC2)cc1 (stereo not drawn) [Example 7], which pKa [1] is on record?
Its pKa is 6.

What about the PdI [2] of the same compound?
Its PdI is 0.080.

What about the particle size [2] of the same compound?
Its particle size is 126 nm.

And the zeta potential [2]?
Its zeta potential is −10.3 mV.

Which results are given for CCCCCCCC/C=C\CCCCCCCC(=O)Oc1ccc(CC(=O)OCCOC(=O)C(CSSCC(NC(=O)CN(CC)CC)C(=O)OCCOC(=O)Cc2ccc(OC(=O)CCCCCCC/C=C\CCCCCCCC)cc2)NC(=O)CN(CC)CC)cc1 (stereo not drawn) [Example 4]?
pKa [1]: 6.3; PdI [2]: 0.091; particle size [2]: 81 nm; zeta potential [2]: −7.78 mV
